For one assay, the system named is pain response in rats. Kind of assay: Formaldehyde test in rats (phase 2, chronic pain component). It counts as in vivo. As for the experimental part:
III. Formaldehyde Test in Rats:
The formaldehyde test (Dubuisson, D. and Dennis, S. G., 1977, Pain, 4, 161-174) is a model of acute and chronic pain. A biphasic nociceptive response is induced in freely mobile test animals by a single formaldehyde injection into the dorsal side of a hind paw, said response being detected by the observation of three clearly distinguishable behaviour patterns. The response is in two phases: phase 1=immediate response (duration up to 10 min; paw shaking, licking), phase 2=late response (after a resting phase; likewise paw shaking, licking; duration up to 60 min). […] In the investigations presented here, it was the chronic pain component (phase 2) which was evaluated.
Formaldehyde is administered subcutaneously in a volume of 50 μl and a concentration of 5% into the dorsal side of the right hind paw of each animal. […] The specific behavioural changes, such as raising and shaking the paw, changes in weight bearing of the animal and biting and licking responses are observed and recorded over the observation period of 21 to 27 min after the formaldehyde injection. The various behaviours are summarised as a “pain rate” (PR), which is the calculated nociceptive response averaged over 3 min sub-intervals. […]

Another assay deals with T1, mGluR5 receptor (pig) (Sus scrofa, UniProt I3LUI7).
T1 construct: 450 μg of protein from brain homogenate is incubated; from tissue; host or cells: pig brain hemispheres without medulla, cerebellum and pons
T1 sequence (I3LUI7 19-1212): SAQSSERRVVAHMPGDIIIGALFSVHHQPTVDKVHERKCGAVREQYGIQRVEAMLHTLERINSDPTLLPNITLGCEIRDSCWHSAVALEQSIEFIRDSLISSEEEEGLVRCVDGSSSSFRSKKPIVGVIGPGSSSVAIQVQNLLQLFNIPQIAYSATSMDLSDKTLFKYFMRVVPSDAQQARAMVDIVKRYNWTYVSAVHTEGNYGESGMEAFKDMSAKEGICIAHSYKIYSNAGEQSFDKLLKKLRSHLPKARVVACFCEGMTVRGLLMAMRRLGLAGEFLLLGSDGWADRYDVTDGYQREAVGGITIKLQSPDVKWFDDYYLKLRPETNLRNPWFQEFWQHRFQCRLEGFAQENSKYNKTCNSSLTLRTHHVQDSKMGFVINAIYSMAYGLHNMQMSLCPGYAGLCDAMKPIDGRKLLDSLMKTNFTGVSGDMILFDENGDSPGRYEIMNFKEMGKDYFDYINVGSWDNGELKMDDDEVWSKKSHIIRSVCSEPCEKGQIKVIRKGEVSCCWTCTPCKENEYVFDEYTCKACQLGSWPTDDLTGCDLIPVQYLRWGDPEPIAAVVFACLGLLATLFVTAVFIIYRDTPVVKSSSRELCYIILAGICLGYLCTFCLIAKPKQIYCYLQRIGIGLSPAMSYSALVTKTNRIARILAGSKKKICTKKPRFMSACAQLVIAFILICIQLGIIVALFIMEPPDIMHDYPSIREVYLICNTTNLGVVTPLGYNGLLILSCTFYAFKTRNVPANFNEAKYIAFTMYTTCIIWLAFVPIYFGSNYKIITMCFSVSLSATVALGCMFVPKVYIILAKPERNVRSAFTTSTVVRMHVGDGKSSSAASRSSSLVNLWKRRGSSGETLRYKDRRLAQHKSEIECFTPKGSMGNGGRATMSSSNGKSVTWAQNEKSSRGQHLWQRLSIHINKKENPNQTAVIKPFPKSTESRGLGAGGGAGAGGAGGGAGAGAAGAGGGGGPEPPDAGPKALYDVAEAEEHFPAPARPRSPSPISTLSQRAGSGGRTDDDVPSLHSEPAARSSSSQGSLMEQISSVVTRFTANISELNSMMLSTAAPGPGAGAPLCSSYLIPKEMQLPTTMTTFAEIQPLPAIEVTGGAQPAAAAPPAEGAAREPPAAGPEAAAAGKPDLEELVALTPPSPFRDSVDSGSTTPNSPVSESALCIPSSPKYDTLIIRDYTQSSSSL
Kind of assay: [3H]-MPEP binding in the mGluR5 receptor binding assay (pig brain homogenate). To be noted: pig brain homogenate; 5 nM [3H]-MPEP. Here is the method:
I. Method for Determining the Inhibition of [^3H]-MPEP Binding in the mGluR5 Receptor Binding Assay
Pig brain homogenate is produced by homogenisation (Polytron Pt 3000, Kinematica AG, 10,000 revolutions per minute for 90 seconds) of pig brain hemispheres without medulla, cerebellum and pons in a buffer of pH 8.0 (30 mM Hepes, Sigma, order number H3375+1 tablet Complete Roche Diagnostics, order number 1836145 made up to 100 ml) in a ratio of 1:20 (brain weight/volume) and differential centrifugation at 900×g and 40,000×g. 450 μg of protein from brain homogenate is incubated in each case in 250 μl incubation batches in 96-well microtitre plates with 5 nM ^3[H]-MPEP (Tocris, order number R1212) (MPEP=[…]) and the compounds to be investigated ([…]) in the buffer (as above) at room temperature for 60 min.
The batches are then filtered with the assistance of a Brandel Cell Harvester (Brandel, Robotic 9600 model) on Unifilter plates with glass filter mats (Perkin Elmer, order number 6005177) and then washed 3 times with buffer (as above) using 250 μl per sample. The filter plates are then dried for 60 min at 55° C. Then 30 μl of Ultima Gold™ scintillating material (Packard BioScience, order number 6013159) is added per well and after 3 hours the samples are measured using the β counter (Microbeta, Perkin Elmer). Nonspecific binding is determined by the addition of 10 μM MPEP (Tocris, order number 1212).

The target in a further assay is T2, mGluR5 receptor (human) (Homo sapiens, UniProt P41594).
T2 construct: host or cells: CHO cells (CHO-hmGluR5), expression induced with doxycycline
T2 sequence (P41594 21-1212): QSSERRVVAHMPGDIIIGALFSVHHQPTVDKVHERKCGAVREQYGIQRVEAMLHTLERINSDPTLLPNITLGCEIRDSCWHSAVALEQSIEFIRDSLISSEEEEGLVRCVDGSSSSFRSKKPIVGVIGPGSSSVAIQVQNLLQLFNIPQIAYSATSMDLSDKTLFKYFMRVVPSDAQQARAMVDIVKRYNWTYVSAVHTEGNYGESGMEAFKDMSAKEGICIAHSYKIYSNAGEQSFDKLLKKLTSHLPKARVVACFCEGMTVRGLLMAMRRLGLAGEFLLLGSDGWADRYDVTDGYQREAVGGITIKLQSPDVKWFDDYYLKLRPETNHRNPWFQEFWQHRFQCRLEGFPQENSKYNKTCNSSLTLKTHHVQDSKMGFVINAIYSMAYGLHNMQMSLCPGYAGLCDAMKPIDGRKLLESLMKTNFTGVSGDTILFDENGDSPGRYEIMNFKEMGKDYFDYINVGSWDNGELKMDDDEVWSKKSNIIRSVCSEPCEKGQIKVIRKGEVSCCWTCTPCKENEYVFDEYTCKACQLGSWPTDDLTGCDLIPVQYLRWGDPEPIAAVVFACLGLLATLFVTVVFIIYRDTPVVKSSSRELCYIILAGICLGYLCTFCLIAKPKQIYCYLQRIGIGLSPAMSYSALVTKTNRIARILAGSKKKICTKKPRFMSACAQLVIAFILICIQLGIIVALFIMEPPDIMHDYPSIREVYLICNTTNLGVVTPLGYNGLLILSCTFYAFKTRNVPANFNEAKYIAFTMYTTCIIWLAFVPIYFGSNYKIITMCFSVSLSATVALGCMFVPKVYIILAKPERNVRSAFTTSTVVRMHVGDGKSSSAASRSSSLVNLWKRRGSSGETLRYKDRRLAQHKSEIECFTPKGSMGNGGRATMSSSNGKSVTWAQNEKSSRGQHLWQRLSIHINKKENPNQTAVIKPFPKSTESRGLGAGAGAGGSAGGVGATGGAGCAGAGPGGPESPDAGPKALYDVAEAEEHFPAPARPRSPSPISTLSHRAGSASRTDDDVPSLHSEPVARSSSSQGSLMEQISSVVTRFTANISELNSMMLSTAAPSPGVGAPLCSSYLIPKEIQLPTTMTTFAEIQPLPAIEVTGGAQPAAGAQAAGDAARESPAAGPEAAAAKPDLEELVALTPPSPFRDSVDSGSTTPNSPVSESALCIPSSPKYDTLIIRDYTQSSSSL
Kind of assay: Functional Ca2+ influx assay in the mGluR5 receptor assay (CHO-hmGluR5 cells, DHPG). It is filed as cell-based. The conditions noted are these: 10 μM DHPG, Ki=IC50/(1+(AGconc/EC50)). From the text: II. Method for Determining Ca^2+ Influx in the mGluR5 Receptor Assay
An agonistic and/or antagonistic substance action on the mGluR5 receptor of the rat species may be determined with the following assay. According to this assay, intracellular Ca^2+ release is quantified after activation of the mGluR5 receptor with the assistance of a Ca^2+-sensitive dye (type Fluo-4, Molecular Probes Europe BV, Leiden, Netherlands) in a FlexStation (Molecular Devices, Sunnyvale, USA).
Description of the Functional Ca^2+ Influx Assay
20,000 CHO-hmGluR5 cells/well (Euroscreen, Gosselies, Belgium) are pipetted out into 96 well plates (BD Biosciences, Heidelberg, Germany, Ref. 356640, clear bottom, 96 well, poly-D-lysine) and incubated overnight in HBSS buffer (Gibco No. 14025-050) with the following additives: 10% FCS (GIBCO, 10270-106) and doxycycline (BD Biosciences Clontech 631311 600 ng/ml).
For the purpose of functional investigation, the cells were loaded with 2 μM Fluo-4 and 0.01 vol. % Pluronic F127 (Molecular Probes Europe BV, Leiden, Netherlands) in HBSS buffer (Hank's buffered saline solution, Gibco Invitrogen GmbH, Karlsruhe, Germany) with Probenicid (Sigma P8761, 0.69 mg/ml) for 30 min at 37° C.
The cells are then washed 3 times with washing buffer (HBSS buffer, Gibco No. 14025-050, with Probenicid (Sigma P8761, 0.69 [mg]/ml) and then resuspended with the same buffer to make up to 100 μl. After 15 min the plates are transferred for determination of Ca^2+ measurements in the presence of DHPG ((S)-3,5-dihydroxyphenylglycine, Tocris Biotrend Chemikalien GmbH, Cologne, Germany, final DHPG concentration: 10 μM) and in the presence or absence of test substances into a FLuorometric Imaging Plate Reader (FLIPR, Molecular Devices, Sunnyvale, Calif.).
Ca^2+-dependent fluorescence is measured before and after addition of test substances. Quantification proceeds by measuring the highest fluorescence intensity over time.
After recording a fluorescence baseline for 10 s, 50 μl of test substance solution (various test substance concentrations in HBSS buffer with 1% DMSO and 0.02% Tween 20, Sigma) are added and the fluorescence signal is measured for 6 min. Then, 50 μl of DHPG solution ((S)-3,5-dihydroxyphenylglycine, Tocris Biotrend Chemikalien GmbH, Cologne, Germany, final DHPG concentration: 10 μM) are added and Ca^2+ influx is simultaneously measured for 60 s. The final DMSO concentration amounts to 0.25% and the final Tween 20 content amounts to 0.005%. The data are analysed with Microsoft Excel and GraphPad Prism. The dose-response curves are calculated with non-linear regression and IC50 values are determined. Each data point is determined in triplicate and IC50 values are averaged from a minimum of 2 independent measurements.
Ki values are calculated using the following formula: Ki=IC50/(1+(AGconc/EC50)).
AGconc=10 μM; EC50 corresponds to the DHPG concentration which is necessary for the semimaximal influx of Ca^2+.

The structures appear in SMILES notation.

One compound from US20090075978A1, “SUBSTITUTED PROPIOLIC ACID AMIDES AND THEIR USE FOR PRODUCING DRUGS” (Grunenthal GmbH, priority 2005, published 2009) can be followed below.

As a reminder, the ED50 is the dose that gives a 50% effect, or the effect in half of the subjects. A low value points to greater potency. The term IC50 denotes the concentration that gives 50% inhibition. High values mean weaker potency in that assay, low ones greater potency in that assay. The Ki is a dissociation constant, usually derived from enzyme kinetics or from competition with a known ligand. Read a high Ki as lower affinity.

In the assay with pain response in rats (iv, rat, i.v., 30 min before formaldehyde), `CC1c2ccccc2CCN1C(=O)C#Cc1cccc(Cl)c1` (stereo not shown) [Example 18, 2-(3-(3-chlorophenyl)-propiolyl)-1-methyl-1,2,3,4-tetrahydro-isoquinoline] gave a median effective dose (ED50) of 1.06 mg/kg. In addition, in the assay on pain response in rats (per os, 10 mg/kg), the “Formaldehyde test (rat) per os Reduction in nociceptive behaviour relative to control at 10 mg/kg [%]” value is recorded as 41%. The compound further yielded an IC50 at mGluR5 receptor (pig) of 5.4 nM. The compound also came in with a Ki at mGluR5 receptor (human) of 1.2 nM.
